Source: EP1534672B1, “RETINOL DERIVATIVES, THEIR USE IN THE TREATMENT OF CANCER AND FOR POTENTIATING THE EFFICACY OF OTHER CYTOTOXIC AGENTS” (priority 2002, dated 2004)
Several values for one entry are separate records, joined by “and”; a condition that tells them apart may be missing. Equal values may be shown once. Where a name gives a salt, the structure may show the parent alone. Read-outs that look alike come from different tables or passages of the source. Marks after values point to notes of the source that are not given here.

System: Human Breast Adenocarcinoma Cell Line MDA-MB-231
Experiment: Drug cytotoxicity testing (viable cell count, trypan blue exclusion, cell growth inhibition)
Format: cell-based
Settings: for IC50: calculated from three concentrations, read-out: IC50 mol/L (a); for cell growth inhibition reached on increase of the concentration, in (B): sodium salt, range 10^-9 to 10^-7 M, dilution in normal saline (B)
Description: MDA-MB-231 cells were propagated in MEM culture medium with 2 mM L-glutamine, 10% heat-inactivated fetal bovine serum (FBS) and antibiotics. DU 145 cells were cultured in MEM culture medium containing 2 mM L-glutamine, 1 mM sodium pyruvate, 10% FBS and antibiotics. SKOV-3 cells were cultured in McCoy's 5A culture medium, supplemented with 1,5 mM L-glutamine, 10% FBS and antibiotics. A549 cells were cultured in Ham's F-12 culture medium with 1 mM L-glutamine, 10% FBS and antibiotics. All media and supplements were purchased from Sigma-Aldrich (St.Louis, MO, USA). Cell propagation of all lines was carried out in Falcon™ 25 cm^2 cultivation flasks (Becton Dickinson Labware).
Drug cytotoxicity testing was carried out with using Falcon™ 96-well cultivation plates for adherent cells (Becton Dickinson Labware). These plates were seeded by cells either at 12 × 10^3 MDA-MB-231 cells/well, or at 12 × 10^3 DU 145 cells/well, or at 14 × 10^3 SKOV-3 cells/well, or at 10 × 10^3 A549 cells/well in a volume of 200 µL/well.
The cell cultures in cultivation plates were allowed to adhere for 24 hour of incubation. On day 1 after cell seeding, 2 µL solutions of the drugs to be tested in medium with 5% FBS was added to the cultures. In the control cultures, 2 µL of medium with 5% FBS was added as solvent control. The cells were incubated for 2 consecutive days. At the end of the incubation period adherent cells were detached by trypsinization and the number of viable cells was counted using trypan blue exclusion test and a hemocytometer. All data were derived from an average of three determinations each in six replicates. The results were expressed as mean cell number ± SE and the differences between control and test series evaluated by means of Student's t-test. The drug cytotoxicity was evaluated based on the extent of cell growth inhibition. The cell growth inhibition of the tested drugs was calculated as follows: Cell growth inhibition,% = (Control-TestSeries)/(Control) × 100 [formula]
In the case of comparative evaluation of cytotoxicity of the inventive compounds themselves and the formulation related to consecutive dilutions of their initial solutions before adding to the cultures, 2 µL solutions of the drugs to be tested in medium with 5% FBS, in normal saline and in saline with 2,3 mM CaCl2 were added to the cultures. In control cultures, 2 µL of medium with 5% FBS, normal saline and saline with 2,3 mM CaCl2 were added as solvent controls (negative controls). […] Therefore an average of negative controls was calculated. […] Therefore an average of positive controls was calculated (for each antibiotic).

[1] = cytotoxic drug alone 10^-7 mol/L, average of positive controls in medium with 5% FBS, normal saline and saline with 2,3 mM CaCl2, hydrochloride
[2] = cytotoxic drug alone 10^-8 mol/L, average of positive controls in medium with 5% FBS, normal saline and saline with 2,3 mM CaCl2, hydrochloride
[3] = cytotoxic drug alone 10^-9 mol/L, average of positive controls in medium with 5% FBS, normal saline and saline with 2,3 mM CaCl2, hydrochloride
[4] = Homo sapiens, MDA-MB-231, 48 h, compound alone, final concentration 10^-7 mol/L, working solutions in MEM with 5% FBS, two days, read-out: cell growth inhibition
[5] = Homo sapiens, MDA-MB-231, 48 h, compound alone, final concentration 10^-8 mol/L, working solutions in MEM with 5% FBS, two days, read-out: cell growth inhibition
[6] = Homo sapiens, MDA-MB-231, 48 h, compound alone, final concentration 10^-9 mol/L, working solutions in MEM with 5% FBS, two days, read-out: cell growth inhibition
[7] = compound alone, final concentration 10^-7 mol/L, working solutions in MEM with 5% FBS, two days
[8] = compound alone, final concentration 10^-8 mol/L, working solutions in MEM with 5% FBS, two days
[9] = compound alone, final concentration 10^-9 mol/L, working solutions in MEM with 5% FBS, two days
[10] = Homo sapiens, MDA-MB-231, compound alone 10^-7 mol/L, in B (normal saline), read-out: cell growth inhibition
[11] = Homo sapiens, MDA-MB-231, compound alone 10^-7 mol/L, read-out: Cell growth inhibition in A compared to that in B was increased by
[12] = Homo sapiens, MDA-MB-231, compound alone 10^-8 mol/L, in A (saline with […] CaCl2), read-out: cell growth inhibition
[13] = Homo sapiens, MDA-MB-231, compound alone 10^-8 mol/L, in B (normal saline), read-out: cell growth inhibition
[14] = Homo sapiens, MDA-MB-231, compound alone 10^-8 mol/L, read-out: Cell growth inhibition in A compared to that in B was increased by
[15] = Homo sapiens, MDA-MB-231, compound alone 10^-9 mol/L, in A (saline with […] CaCl2), read-out: cell growth inhibition
[16] = Homo sapiens, MDA-MB-231, compound alone 10^-9 mol/L, in B (normal saline), read-out: cell growth inhibition
[17] = Homo sapiens, MDA-MB-231, compound alone 10^-9 mol/L, read-out: Cell growth inhibition in A compared to that in B was increased by
[18] = compound alone 10^-7 mol/L, in B (normal saline)
[19] = compound alone 10^-8 mol/L, in B (normal saline)
[20] = compound alone 10^-9 mol/L, in B (normal saline)

COc1cccc2c1C(=O)c1c(O)c3c(c(O)c1C2=O)C[C@@](O)(C(=O)CO)C[C@@H]3O[C@H]1C[C@H](N)[C@H](O)[C@H](C)O1 [Doxorubicin, (8S,10S)-10-[(3-amino-2,3,6-trideoxy-α-L-lyxo-hexopyranosyl)oxy]-8-glycolyl-7,8,9,10-tetrahydro-6,8,11-trihydroxy-1-methoxy-5,12-naphtacenedione hydrochloride, reference compound]
IC50 (Homo sapiens, MDA-MB-231, as concentration of cytotoxic drug, alone or in formulation at molar ratio 1:6, medium with 5% FBS): 76 nM
inhibition at 0.1 µM (Homo sapiens, MDA-MB-231, cytotoxic drug 10^-7 mol/L (100 nM), alone or in formulation at molar ratio 1:6, working solutions in medium with 5% FBS, read-out: Cell Growth Inhibition, %): 53.6%
inhibition at 0.01 µM (Homo sapiens, MDA-MB-231, cytotoxic drug 10^-8 mol/L, alone or in formulation at molar ratio 1:6, working solutions in medium with 5% FBS, read-out: Cell Growth Inhibition, %): 26.4%
inhibition at 0.001 µM (Homo sapiens, MDA-MB-231, cytotoxic drug 10^-9 mol/L, alone or in formulation at molar ratio 1:6, working solutions in medium with 5% FBS, read-out: Cell Growth Inhibition, %): 13.8%
inhibition at 0.1 µM (Homo sapiens, MDA-MB-231, cytotoxic drug alone 10^-7 mol/L, average of positive controls in medium with 5% FBS, normal saline and saline with 2,3 mM CaCl2, read-out: Cell Growth Inhibition, %): 55.4%
inhibition at 0.01 µM (Homo sapiens, MDA-MB-231, cytotoxic drug alone 10^-8 mol/L, average of positive controls in medium with 5% FBS, normal saline and saline with 2,3 mM CaCl2, read-out: Cell Growth Inhibition, %): 29.4%
inhibition at 0.001 µM (Homo sapiens, MDA-MB-231, cytotoxic drug alone 10^-9 mol/L, average of positive controls in medium with 5% FBS, normal saline and saline with 2,3 mM CaCl2, read-out: Cell Growth Inhibition, %): 19.4%
IC50 (Homo sapiens, MDA-MB-231, cytotoxic drug alone, average of positive controls): 62 nM
Tumor Cell Number, × 10^3 (cytotoxic drug 10^-7 mol/L (100 nM), alone or in formulation at molar ratio 1:6, working solutions in medium with 5% FBS, hydrochloride): 26.2 ± 1.29 × 10^3
Cell Growth Inhibition, % (cytotoxic drug 10^-7 mol/L (100 nM), alone or in formulation at molar ratio 1:6, working solutions in medium with 5% FBS, hydrochloride, 0.1 µM): 53.0* %
Tumor Cell Number, × 10^3 (cytotoxic drug 10^-7 mol/L (100 nM), alone or in formulation at molar ratio 1:6, working solutions in medium with 5% FBS, listed as doxorubicin, hydrochloride): 23.6 ± 1.02 × 10^3
Tumor Cell Number, × 10^3 (cytotoxic drug 10^-8 mol/L, alone or in formulation at molar ratio 1:6, working solutions in medium with 5% FBS): 41.0 ± 1.50 × 10^3
Tumor Cell Number, × 10^3 (cytotoxic drug 10^-9 mol/L, alone or in formulation at molar ratio 1:6, working solutions in medium with 5% FBS): 48.0 ± 1.85 × 10^3
Cell Growth Inhibition, % [1]: 55.3* %
Tumor Cell Number, × 10^3 [1]: 25.5±0.71 × 10^3 and 25.2±1.56 × 10^3
Cell Growth Inhibition, % [2]: 27.3 * %
Tumor Cell Number, × 10^3 [2]: 40.4±1.65 × 10^3 and 41.0±0.96 × 10^3
Cell Growth Inhibition, % [3]: 19.1* %
Tumor Cell Number, × 10^3 [3]: 46.1±2.07 × 10^3 and 45.6±1.38 × 10^3
IC50 (cytotoxic drug alone, average of positive controls, hydrochloride): 64 nM

CCOC(=O)[C@H](CS(=O)(=O)O)NC(=O)/C=C(C)/C=C/C=C(C)/C=C/C1=C(C)CCCC1(C)C [compound I-1b, N-(all-trans-retlnoyl)-L-cysteic acid ethyl ester]
inhibition at 0.1 µM [4]: 46.7%
inhibition at 0.01 µM [5]: 44.2%
inhibition at 0.001 µM [6]: 39.2%
number of viable cells [7]: 30.5 ± 1.82 × 10^3
number of viable cells [8]: 31.9 ± 2.16 × 10^3
number of viable cells [9]: 34.8 ± 2.41 × 10^3

CC1=C(/C=C/C(C)=C/C=C/C(C)=C/C(=O)N[C@@H](CS(=O)(=O)O)C(=O)OC(C)C)C(C)(C)CCC1 [compound I-1c, N-(all-trans-retinoyl)-Lwcysteic acid isopropyl ester]
inhibition at 0.01 µM [5]: 46.9%
inhibition at 0.001 µM [6]: 40.6%
number of viable cells [7]: 28.9 ± 1.52 × 10^3
number of viable cells [8]: 30.4 ± 1.79 × 10^3
number of viable cells [9]: 34.0 ± 2.13 × 10^3

CCCOC(=O)[C@H](CS(=O)(=O)O)NC(=O)/C=C(C)/C=C/C=C(C)/C=C/C1=C(C)CCCC1(C)C [compound I-1d, N-(all-trans-retinoyl)-L-cysteic acid propyl ester]
inhibition at 0.1 µM [4]: 54.8%
inhibition at 0.01 µM [5]: 50.7%
inhibition at 0.001 µM [6]: 45.2%
number of viable cells [7]: 24.1 ± 1.46 × 10^3
number of viable cells [8]: 26.3 ± 1.67 × 10^3
number of viable cells [9]: 29.2 ± 1.89 × 10^3

CCCCOC(=O)[C@H](CS(=O)(=O)O)NC(=O)/C=C(C)/C=C/C=C(C)/C=C/C1=C(C)CCCC1(C)C [compound I-1e, N-(all-trans-retinoyl)-L-cysteic acid butyl ester]
inhibition at 0.1 µM [4]: 53.5%
inhibition at 0.01 µM [5]: 49.2%
inhibition at 0.001 µM [6]: 44.7%
number of viable cells [7]: 24.8 ± 1.34 × 10^3
number of viable cells [8]: 27.1 ± 1.75 × 10^3
number of viable cells [9]: 29.5 ± 2.18 × 10^3

CNC(=O)[C@H](CS(=O)(=O)O)NC(=O)/C=C(C)/C=C/C=C(C)/C=C/C1=C(C)CCCC1(C)C [compound I-1g, N-(all-trans-retinoyl)-L-cysteic acid methylamide]
inhibition at 0.01 µM [5]: 35.9%
inhibition at 0.001 µM [6]: 27.8%
inhibition at 0.1 µM [10]: 22.8%
inhibition at 0.1 µM [11]: 26.5%
inhibition at 0.01 µM [12]: 36.7%
inhibition at 0.01 µM [13]: 14.2%
inhibition at 0.01 µM [14]: 26.3%
inhibition at 0.001 µM [15]: 28.5%
inhibition at 0.001 µM [16]: 4.2%
inhibition at 0.001 µM [17]: 25.4%
number of viable cells [18]: 43.1 ± 2.03 × 10^3
number of viable cells [19]: 47.9 ± 2.86 × 10^3
number of viable cells [20]: 53.5 ± 3.21 × 10^3
cell growth inhibition reached when increasing the concentration (compound alone (sodium salt), concentration range 10^-9 to 10^-7 M): ~43%
number of viable cells [7]: 32.1 ± 1.72 × 10^3
number of viable cells [8]: 36.2 ± 1.95 × 10^3
number of viable cells [9]: 40.8 ± 2.14 × 10^3
cell growth inhibition reached on increase of the concentration, in (B): ~23%

CC1=C(/C=C/C(C)=C/C=C/C(C)=C\C(=O)N[C@@H](CS(=O)(=O)O)C(=O)O)C(C)(C)CCC1 [compound II-1, N-(13-cis-Retinoyl)-L-cysteic acid]
inhibition at 0.1 µM (Homo sapiens, MDA-MB-231, compound alone 10^-7 mol/L, in A (saline with […] CaCl2), read-out: cell growth inhibition): 42.7%
inhibition at 0.1 µM [10]: 32.2%
inhibition at 0.1 µM [11]: 15.5%
inhibition at 0.01 µM [12]: 41.3%
inhibition at 0.01 µM [13]: 30.6%
inhibition at 0.01 µM [14]: 15.4%
inhibition at 0.001 µM [15]: 37.4%
inhibition at 0.001 µM [16]: 25.5%
inhibition at 0.001 µM [17]: 16%
number of viable cells [18]: 38.6 ± 1.25 × 10^3
number of viable cells [19]: 39.5 ± 1.46 × 10^3
number of viable cells [20]: 42.4 ± 1.63 × 10^3
cell growth inhibition reached on increase of the concentration, in (B): ~32%

CCOC(=O)[C@H](CS(=O)(=O)O)NC(=O)\C=C(C)/C=C/C=C(C)/C=C/C1=C(C)CCCC1(C)C [compound II-1b, N-(13-cis-retinoyl)-L-cysteic acid ethyl ester]
inhibition at 0.1 µM [4]: 49.1%
inhibition at 0.01 µM [5]: 46.3%
inhibition at 0.001 µM [6]: 41.4%
number of viable cells [7]: 29.8 ± 1.70 × 10^3
number of viable cells [8]: 31.4 ± 1.94 × 10^3
number of viable cells [9]: 34.3 ± 1.88 × 10^3
